Test results as given in patent US20120058894A1, “SYNERGISTIC COMBINATIONS WHICH ARE COMPATIBLE WITH CULTIVATED PLANTS AND WHICH COMPRISE HERBICIDES SELECTED FROM THE GROUP CONSISTING OF BENZOYLCYCLOHEXANEDIONES FOR USE IN RICE CROPS” (Bayer CropScience AG, priority 2007, published 2012).

Assays:
Type in all cases: in vivo
[1] = system: SCPSS (Scirpus juncoides); experiment: Post-emergence weed action, greenhouse pot test
Experimental: (§1) Seeds or root pieces of harmful mono- and dicotyledonous plants are placed in sandy clay soil in pots, covered with earth and secured in a greenhouse under good growing conditions (temperature, air humidity, water supply). Approximately three weeks after sowing, the plants are treated at the 2- to 3-leaf stage with the herbicidal active substances or the combinations according to the invention. The combinations according to the invention formulated as wettable powders or as emulsion concentrates are sprayed, in spray application, on to the green plant parts in different dosages with a water application rate of 600 to 800 I/ha (corrected). Immediately up to a few days after application, the test receptacles accumulate water over the ground surface by up to 30 mm. With the water application (submerged application), on the other hand, the ground in the closed test receptacle is already covered with the paddy water up to 30 mm at the time of the application. The formulated active substances are here added directly to the paddy water. After an exposure time of the test plants in the greenhouse of an additional 3 to 4 weeks under optimum growing conditions, the effect of the preparations is evaluated visually in comparison with untreated controls. […] In this connection, actions of the combinations according to the invention which exceed the formal sum of the actions of the herbicides when applied individually are frequently observed. The values observed for the tests show, with suitable low dosages, an action of the combinations which lie above the expected values according to Colby.
(§2) When the combinations according to the invention are used, herbicidal actions on a harmful plant species which exceed the formal sum of the actions of the herbicides present when applied singly are frequently observed. Alternatively, it can in many cases be observed that a lower application rate for the herbicidal combination is needed in order to achieve, in comparison with the individual preparations, the same action with a harmful plant species. Such improvements in action or improvements in effectiveness or economies in application rate are a strong indication of a synergistic effect. If the observed activity values already exceed the formal sum of the values for the tests with individual applications, then they likewise exceed the expected value according to Colby, which is calculated according to the following formula and is likewise regarded as an indication of synergy (cf. S. R. Colby in Weeds, 15 (1967), pp. 20 to 22):
(§3) In this connection: • A, B=action of the component A or B in percent at a dosage of a or b grams ai/ha, • E=expected value in % at a dosage of a+b grams ai/ha.
(§4) The values observed for the test examples mentioned below are greater than (harmful plants) or lower than (cultivated plants) the expected values according to Colby.

[2] = system: BRAPL (Brachiaria platyphylla); experiment: Post-emergence weed action, greenhouse pot test
Experimental: as §1, §2, §3, §4

[3] = system: ORYZA (Oryza sativa); experiment: Post-emergence greenhouse test, damage to cultivated plant rice; settings: for Damage ORYZA: dosage 300 g a.i./ha
Experimental: as §1, §2, §3, §4

[4] = system: LEFCH (Leptochloa chinensis); experiment: Post-emergence weed action, greenhouse pot test
Experimental: as §1, §2, §3, §4

[5] = system: ECHCG (Echinochloa crus galli); experiment: Post-emergence weed action, greenhouse pot test; settings: Table 4, post-emergence, dosage 100 g a.i./ha
Experimental: as §1, §2, §3, §4

[6] = system: CYPES (Cyperus serotinus); experiment: Post-emergence weed action, greenhouse pot test; settings: Table 4, post-emergence, dosage 100 g a.i./ha
Experimental: as §1, §2, §3, §4

[7] = Table 2, post-emergence, dosage 12.5 g a.i./ha
[8] = Table 5, post-emergence, dosage 12.5 g a.i./ha
[9] = Table 5, post-emergence, dosage 62.5 g a.i./ha
[10] = Table 6, post-emergence, dosage 6.25 g a.i./ha
[11] = Table 3, post-emergence, dosage 6.25 g a.i./ha

CS(=O)(=O)c1ccc(C(=O)C2=C(Sc3ccccc3)C3CCC(C3)C2=O)c(Cl)c1 (stereo not shown) [Compound B5, benzobicyclon]
Action against SCPSS ([1]; Table 8, post-emergence, dosage 37.5 g a.i./ha): 60%

CS(=O)(=O)c1ccc(C(=O)C2C(=O)CCCC2=O)c(Cl)c1 [Compound B1, sulcotrione]
Action/Damage BRAPL [2, 7]: 0% | Action/Damage BRAPL [2, 8]: 0% | Action/Damage ORYZA [3, 7]: 5% | Action/Damage ORYZA [3, 8]: 5%

CS(=O)(=O)c1ccc(C(=O)C2C(=O)CCCC2=O)c(Cl)c1COCC1CCCO1 (stereo not shown) [Compound A2, tefuryltrione]
Action against SCPSS ([1]; Table 7, post-emergence, dosage 37.5 g a.i./ha): 50% | Action/Damage BRAPL [2, 9]: 25% | Action/Damage ORYZA [3, 9]: 10%

Cc1ccc(S(=O)(=O)Oc2c(C(=O)c3ccc(Cl)cc3Cl)c(C)nn2C)cc1 [Compound B6, pyrazolynate]
Action against SCPSS ([1]; Table 9, post-emergence, dosage 250 g a.i./ha): 30%

CC(C)(NC(=O)C(Br)C(C)(C)C)c1ccccc1 (stereo not shown) [Compound B7, bromobutide]
Action against SCPSS ([1]; Table 10, post-emergence, dosage 125 g a.i./ha): 70%

CCCCOC(=O)[C@@H](C)Oc1ccc(Oc2ccc(C#N)cc2F)cc1 [Compound B3, cyhalofop-butyl]
Action/Damage LEFCH [4, 10]: 0% | Action/Damage BRAPL [2, 11]: 0% | Action/Damage ORYZA [3, 11]: 0% | Action/Damage ORYZA [3, 10]: 0%

CCOC(=O)C1=NOC(c2ccccc2)(c2ccccc2)C1 [Compound C1, isoxadifen-ethyl]
Wirkung gegen LEFCH ([4]; Table 4, post-emergence, dosage 100 g a.i./ha): 0% | Wirkung gegen ECHCG [5]: 0% | Wirkung gegen CYPES [6]: 0% | Damage ORYZA ([3]; Table 11, post-emergence): 0% | Damage ORYZA ([3]; Table 12, post-emergence): 0%

CS(=O)(=O)c1ccc(C(=O)C2C(=O)CCCC2=O)c(Cl)c1COCC(F)(F)F [Compound A1, tembotrione]
Action against SCPSS ([1]; Table 7, post-emergence, dosage 12.5 g a.i./ha): 40% | Action against SCPSS ([1]; Table 8, post-emergence, dosage 12.5 g a.i./ha): 40% | Action against SCPSS ([1]; Table 9, post-emergence, dosage 12.5 g a.i./ha): 40% | Action against SCPSS ([1]; Table 10, post-emergence, dosage 12.5 g a.i./ha): 40% | Action/Damage BRAPL [2, 7]: 20% | Action/Damage ORYZA ([3]; in vivo): 10%
